Measured values taken from ChEMBL document CHEMBL1150641, “Bryoanthrathiophene, a new antiangiogenic constituent from the bryozoan Watersipora subtorquata (d'Orbigny, 1852)” (J Nat Prod, 2002).

Experiments:
[1] = Antiangiogenic activity against BAEC assessed as inhibition of bFGF-induced cell proliferation in presence of 10% fetal bovine serum after 3 days by MTT assay; assay type: functional, Bos taurus
[2] = Antiangiogenic activity against BAEC assessed as inhibition of bFGF-induced cell proliferation after 3 days by MTT assay; assay type: functional, Bos taurus
[3] = tested on: BAEC; experiment: Reduction of tube formation in bFGF-induced BAEC at 20 nM by Matrigel based tube formation assay; assay type: functional, cell-based; settings: Bos taurus, TDE = time-dependent effect

## COC(=O)c1sc2ccc(O)c3c2c1-c1cccc(O)c1C3=O
[1]
  IC50: 25.8 µM
[2]
  IC50: 2.2 µM

## O=C1c2cccc(O)c2C(=O)c2c(O)cccc21 [DANTHRON]
[1]
  IC50: 20.1 µM
[2]
  IC50: 5.7 µM

## Cc1sc2ccc(O)c3c2c1-c1cccc(O)c1C3=O [BRYOANTHRATHIOPHENE]
[1]
  IC50: 0.22 µM
[2]
  IC50: 0.005 µM
[3]
  Activity: tde
